# Active and inactive are the calls of the source.
# What was measured:
# [1] = Fluorescence-based cell-based high throughput dose response assay for inhibitors of the interaction of nucleotide-binding oligomerization domain containing 2 (NOD2) and the receptor-interacting serine-threonine kinase 2 (RIPK2).; format: functional; conditions: Homo sapiens
# Interleukin-8 [2] = target: T1, Interleukin-8 (Homo sapiens, UniProt P10145); assay: Dose Response confirmation of uHTS small molecule hits for cystic fibrosis induced NFkb Inhibitors in a PAF-induced IL8 counterscreen.; format: functional; conditions: read-out: IC50_Mean
# T1 sequence (P10145 whole entry): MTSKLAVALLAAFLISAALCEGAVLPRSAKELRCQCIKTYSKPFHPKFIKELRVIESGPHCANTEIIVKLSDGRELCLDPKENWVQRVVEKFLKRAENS
# HEK293 [3] = assay: cells; conditions: Homo sapiens
# Kallikrein-7 = Kallikrein-7 (Homo sapiens, UniProt P49862); assay: Fluorescence Intensity-based biochemical primary high throughput dose response assay to identify activators of kallikrein-7 (K7) zymogen.
# Kallikrein-7, sequence (P49862 whole entry): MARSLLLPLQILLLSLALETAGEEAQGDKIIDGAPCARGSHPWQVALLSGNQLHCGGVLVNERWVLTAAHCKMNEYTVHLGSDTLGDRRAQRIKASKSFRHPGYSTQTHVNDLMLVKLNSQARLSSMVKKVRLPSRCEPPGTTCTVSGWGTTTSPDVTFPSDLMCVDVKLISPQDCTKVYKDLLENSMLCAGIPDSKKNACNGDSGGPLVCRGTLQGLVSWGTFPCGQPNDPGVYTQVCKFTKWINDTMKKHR
# HEK293 [4] = assay: cells; conditions: Homo sapiens; remark: listed apart in the source
# Interleukin-8 [5] = target: T1, Interleukin-8; assay: Dose Response confirmation of uHTS small molecule hits for cystic fibrosis induced NFkb Inhibitors in a TNFa-induced IL8 counterscreen.; format: functional; conditions: read-out: IC50_Mean
# [6] = nonselective inhibitors of cellular cAMP signaling, dose response, counter-screen for MC4R biased antagonist project, cell-based, TR-FRET cAMP detection (AID 602305); format: functional;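 further: U2OS cells stimulated with forskolin near its EC80 as the cAMP inducer; potency is for inhibition of forskolin-stimulated cAMP signaling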
# Melanocortin receptor 4 = Melanocortin receptor 4 (Homo sapiens, UniProt P32245); assay: MC4R antagonist potency on cAMP, dose response, cell-based, TR-FRET, biased antagonists (AID 602298); format: functional;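 further: antagonist potency against agonist-stimulated cAMP production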
# Melanocortin receptor 4, sequence (P32245 whole entry): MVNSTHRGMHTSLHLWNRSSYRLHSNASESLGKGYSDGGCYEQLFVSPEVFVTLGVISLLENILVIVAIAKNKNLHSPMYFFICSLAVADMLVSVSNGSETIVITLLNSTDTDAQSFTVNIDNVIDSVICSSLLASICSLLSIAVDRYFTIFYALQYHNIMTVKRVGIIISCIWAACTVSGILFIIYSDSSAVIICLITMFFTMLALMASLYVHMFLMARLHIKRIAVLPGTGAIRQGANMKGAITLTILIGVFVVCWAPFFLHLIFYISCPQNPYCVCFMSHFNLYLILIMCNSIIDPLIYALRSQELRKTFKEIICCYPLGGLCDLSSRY
# [7] = NIH/3T3 fibroblast cytotoxicity, dose response, cytotoxicity control for T. cruzi growth inhibitor project, cell-based, cherry-pick samples, set 2 (AID 651817); format: functional; conditions: NIH3T3
# [8] = intracellular Trypanosoma cruzi inhibitors in host cells – cell-based, plate reader, cherry-pick samples, set 3, dose response (AID 651818); format: functional;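 further: compounds incubated with infected cells for about four days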
# [9] = target: T2, Small ubiquitin-related modifier 2 (Homo sapiens, UniProt P61956); assay: SUMO2–SIM peptide binding inhibitors, dose response, selectivity assay for SUMO1 interaction inhibitor project, biochemical, fluorescence polarization, uHTS hits (AID 624385); format: functional; conditions: read-out: IC50_Mean
# T2 sequence (P61956 whole entry): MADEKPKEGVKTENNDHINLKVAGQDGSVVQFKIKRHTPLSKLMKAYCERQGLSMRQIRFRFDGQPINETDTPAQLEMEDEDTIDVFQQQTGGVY
# [10] = target: T2, Small ubiquitin-related modifier 2; assay: inhibitors of SUMO2 protein-protein interaction, dose response, selectivity assay for SUMO1 interaction inhibitor project, biochemical, FRET, human SUMO2, uHTS hits (AID 624384); format: functional; conditions: read-out: IC50_Mean
# [11] = target: T3, Polyadenylate-binding protein 1 (Homo sapiens, UniProt P11940); assay: PABP1 MLLE–PAM2 interaction inhibitors, dose response, miRNA deadenylation inhibitor project, biochemical, fluorescence polarization, Cy5-PAM2 peptide, secondary (AID 602260); format: functional; conditions: read-out: IC50_Mean
# T3 sequence (P11940 whole entry): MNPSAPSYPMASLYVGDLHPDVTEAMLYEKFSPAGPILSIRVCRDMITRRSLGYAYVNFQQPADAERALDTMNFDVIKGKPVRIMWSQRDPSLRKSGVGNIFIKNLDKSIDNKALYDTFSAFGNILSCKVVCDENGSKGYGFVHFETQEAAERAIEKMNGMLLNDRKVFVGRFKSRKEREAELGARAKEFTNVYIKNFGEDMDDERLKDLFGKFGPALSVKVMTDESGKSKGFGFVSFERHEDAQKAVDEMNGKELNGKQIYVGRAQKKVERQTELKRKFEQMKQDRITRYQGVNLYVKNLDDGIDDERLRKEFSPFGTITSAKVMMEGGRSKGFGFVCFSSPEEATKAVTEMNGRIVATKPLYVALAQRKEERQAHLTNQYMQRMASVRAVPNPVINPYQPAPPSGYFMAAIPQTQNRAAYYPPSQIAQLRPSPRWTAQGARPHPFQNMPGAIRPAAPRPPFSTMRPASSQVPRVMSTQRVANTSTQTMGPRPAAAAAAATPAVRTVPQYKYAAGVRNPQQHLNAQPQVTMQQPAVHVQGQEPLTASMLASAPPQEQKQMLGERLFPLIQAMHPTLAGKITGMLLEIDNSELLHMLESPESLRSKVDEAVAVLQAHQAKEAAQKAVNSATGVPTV
# [12] = target: T4, Small ubiquitin-related modifier 1 (Homo sapiens, UniProt P63165); assay: inhibitors of SUMO1 peptide binding, dose response, biochemical, fluorescence polarization, uHTS hits (AID 624382); format: functional; conditions: read-out: IC50_Mean
# T4 sequence (P63165 whole entry): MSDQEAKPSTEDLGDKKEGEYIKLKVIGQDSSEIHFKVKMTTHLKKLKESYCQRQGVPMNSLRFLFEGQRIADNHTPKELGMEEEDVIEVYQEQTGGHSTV
# [13] = target: T5, Probable nicotinate-nucleotide adenylyltransferase (Staphylococcus aureus (strain N315), UniProt P65502); format: functional, Staphylococcus aureus subsp. aureus N315;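 on IC50 Mean: confirmatory dose-response retesting of NadD inhibitor hits first found in an ultra-high-throughput screen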
# T5 sequence (P65502 whole entry): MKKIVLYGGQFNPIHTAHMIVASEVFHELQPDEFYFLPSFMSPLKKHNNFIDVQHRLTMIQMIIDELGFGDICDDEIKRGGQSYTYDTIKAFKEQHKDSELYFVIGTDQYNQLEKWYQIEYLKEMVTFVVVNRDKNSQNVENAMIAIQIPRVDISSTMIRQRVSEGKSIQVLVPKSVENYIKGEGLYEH
# [14] = target: T5, Probable nicotinate-nucleotide adenylyltransferase; format: functional, Staphylococcus aureus subsp. aureus N315; conditions: read-out: IC50_Mean
# [15] = target: T4, Small ubiquitin-related modifier 1; assay: inhibitors of SUMO1 partner interactions, dose response, biochemical, FRET (AID 624383); format: functional; conditions: read-out: IC50_Mean
# [16] = target: T3, Polyadenylate-binding protein 1; assay: PABP1 MLLE–PAM2 binding inhibitor potency, dose response, biochemical, fluorescence polarization, FITC-PAM2 peptide (AID 602259); format: functional; conditions: read-out: IC50_Mean
# [17] = target: 72 kDa type IV collagenase (Homo sapiens, UniProt P08253); assay: Dose Response validation of uHTS RPN11 inhibitor hits using a MMP-2 Fluorescence assay.; format: functional
# 72 kDa type IV collagenase, sequence (P08253 whole entry): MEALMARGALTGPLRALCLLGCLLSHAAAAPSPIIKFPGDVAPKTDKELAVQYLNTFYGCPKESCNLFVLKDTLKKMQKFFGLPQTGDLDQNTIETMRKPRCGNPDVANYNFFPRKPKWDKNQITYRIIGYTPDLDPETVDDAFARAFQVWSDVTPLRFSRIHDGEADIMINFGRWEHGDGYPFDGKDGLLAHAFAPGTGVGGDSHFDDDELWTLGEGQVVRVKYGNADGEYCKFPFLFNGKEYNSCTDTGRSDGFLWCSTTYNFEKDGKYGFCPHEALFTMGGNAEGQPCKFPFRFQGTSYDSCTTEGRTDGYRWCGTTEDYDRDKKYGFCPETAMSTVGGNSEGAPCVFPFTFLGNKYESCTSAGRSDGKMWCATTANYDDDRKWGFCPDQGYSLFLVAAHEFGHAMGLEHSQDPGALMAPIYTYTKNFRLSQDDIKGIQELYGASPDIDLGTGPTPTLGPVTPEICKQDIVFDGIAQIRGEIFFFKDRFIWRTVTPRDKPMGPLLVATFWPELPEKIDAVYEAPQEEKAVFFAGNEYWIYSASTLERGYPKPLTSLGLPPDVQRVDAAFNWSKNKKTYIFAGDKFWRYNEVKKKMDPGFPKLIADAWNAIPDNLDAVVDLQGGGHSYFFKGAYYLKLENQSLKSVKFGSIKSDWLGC
# Prothrombin = Prothrombin (Bos taurus, UniProt P00735); assay: thrombin inhibition, dose response, biochemical, fluorescence polarization, uHTS hits (AID 602369); format: functional
# [18] = target: 26S proteasome non-ATPase regulatory subunit 14 (Homo sapiens, UniProt O00487); assay: inhibition of proteasome subunit RPN11 – biochemical, fluorescence polarization, uHTS hits, confirmation (AID 602368); format: functional
# 26S proteasome non-ATPase regulatory subunit 14, sequence (O00487 whole entry): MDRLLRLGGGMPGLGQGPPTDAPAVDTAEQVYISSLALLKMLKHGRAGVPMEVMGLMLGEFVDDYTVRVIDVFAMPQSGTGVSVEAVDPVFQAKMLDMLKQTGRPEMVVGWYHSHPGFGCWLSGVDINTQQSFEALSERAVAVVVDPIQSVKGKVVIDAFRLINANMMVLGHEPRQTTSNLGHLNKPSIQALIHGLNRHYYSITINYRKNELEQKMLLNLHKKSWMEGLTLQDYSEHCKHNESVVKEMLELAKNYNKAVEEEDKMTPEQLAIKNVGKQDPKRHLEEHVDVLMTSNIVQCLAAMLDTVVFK
# [19] = target: T6, Heat shock factor protein 1 (Mus musculus, UniProt P38532); assay: inhibition of MG132-induced HSE-luciferase signal, confirmation, cell-based, NIH3T3, luminescence, dose retest (AID 2382); format: functional;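 further: NIH3T3 fibroblasts with HSF1-driven luciferase reporter stressed by proteasome inhibitor MG132; luminescence from HSF1-driven luciferase expression after 8 hours of MG132 stress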
# T6 sequence (P38532 whole entry): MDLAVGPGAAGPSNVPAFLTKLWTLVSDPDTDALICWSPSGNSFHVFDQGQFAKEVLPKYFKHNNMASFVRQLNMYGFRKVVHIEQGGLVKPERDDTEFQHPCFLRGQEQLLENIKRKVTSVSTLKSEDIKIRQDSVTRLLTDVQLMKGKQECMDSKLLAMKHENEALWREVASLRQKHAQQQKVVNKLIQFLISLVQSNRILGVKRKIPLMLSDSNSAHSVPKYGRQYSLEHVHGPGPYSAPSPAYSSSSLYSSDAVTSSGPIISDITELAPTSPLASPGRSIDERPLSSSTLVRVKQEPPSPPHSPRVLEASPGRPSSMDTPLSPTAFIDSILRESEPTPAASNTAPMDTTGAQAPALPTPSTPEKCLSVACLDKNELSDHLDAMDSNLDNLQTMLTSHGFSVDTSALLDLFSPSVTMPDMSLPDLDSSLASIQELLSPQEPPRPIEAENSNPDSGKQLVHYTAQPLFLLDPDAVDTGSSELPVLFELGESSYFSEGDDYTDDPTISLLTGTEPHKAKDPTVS
# HEK293 [20] = assay: NOD1 signaling inhibitors, primary screen, cell-based, luminescence, uHTS (AID 1578); format: functional; conditions: Homo sapiens
# Nonstructural protein 1 = Nonstructural protein 1 (Influenza A virus, UniProt Q194T2); format: functional, Influenza A virus (A/California/07/2009(H1N1))
# Nonstructural protein 1, sequence (Q194T2 whole entry): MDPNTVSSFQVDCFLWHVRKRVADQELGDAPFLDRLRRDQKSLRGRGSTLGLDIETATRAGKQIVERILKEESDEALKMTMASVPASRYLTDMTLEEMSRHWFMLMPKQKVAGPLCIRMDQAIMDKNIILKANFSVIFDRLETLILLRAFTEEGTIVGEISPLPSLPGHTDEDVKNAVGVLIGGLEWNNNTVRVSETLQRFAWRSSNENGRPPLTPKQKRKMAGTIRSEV
# HEK293 [21] = assay: NOD2 signaling inhibitors in MDP-stimulated cells, cell-based, uHTS, luminescence (AID 2001); format: functional; conditions: Homo sapiens
# HEK293 [22] = assay: cells; format: functional, cell-based; conditions: Homo sapiens
# HEK293 [23] = assay: cells; format: functional, cell-based; conditions: Homo sapiens; remark: listed apart in the source
# [24] = target: Photoreceptor-specific nuclear receptor (Homo sapiens, UniProt Q9Y5X4); format: functional, cell-based;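 further: CHO-S cells with Gal4-NCOR and VP16-NR2E3 two-hybrid luciferase reporter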
# Photoreceptor-specific nuclear receptor, sequence (Q9Y5X4 whole entry, the tested form may be a part): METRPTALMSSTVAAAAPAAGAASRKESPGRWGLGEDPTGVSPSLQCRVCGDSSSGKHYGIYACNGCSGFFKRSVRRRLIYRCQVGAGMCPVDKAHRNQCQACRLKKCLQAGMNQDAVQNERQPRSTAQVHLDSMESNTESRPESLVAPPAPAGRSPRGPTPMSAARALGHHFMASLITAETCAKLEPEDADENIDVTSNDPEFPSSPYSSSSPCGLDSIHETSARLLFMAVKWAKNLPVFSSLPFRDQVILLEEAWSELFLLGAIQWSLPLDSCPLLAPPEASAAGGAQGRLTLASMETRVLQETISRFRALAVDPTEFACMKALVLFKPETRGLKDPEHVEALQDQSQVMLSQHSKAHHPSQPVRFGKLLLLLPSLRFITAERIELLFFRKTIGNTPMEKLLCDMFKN
# Protein Wnt-3a = Protein Wnt-3a (Mus musculus, UniProt P27467); assay: Wnt3a-driven reporter signaling inhibition, dose response, selectivity assay for Gli-SUFU antagonist project, Wnt-LIGHT cells, luminescence (AID 651570); format: functional; conditions: read-out: IC50_Mean;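 further: Wnt-LIGHT reporter cells stimulated with conditioned medium from Wnt3a-producing cells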
# Protein Wnt-3a, sequence (P27467 whole entry): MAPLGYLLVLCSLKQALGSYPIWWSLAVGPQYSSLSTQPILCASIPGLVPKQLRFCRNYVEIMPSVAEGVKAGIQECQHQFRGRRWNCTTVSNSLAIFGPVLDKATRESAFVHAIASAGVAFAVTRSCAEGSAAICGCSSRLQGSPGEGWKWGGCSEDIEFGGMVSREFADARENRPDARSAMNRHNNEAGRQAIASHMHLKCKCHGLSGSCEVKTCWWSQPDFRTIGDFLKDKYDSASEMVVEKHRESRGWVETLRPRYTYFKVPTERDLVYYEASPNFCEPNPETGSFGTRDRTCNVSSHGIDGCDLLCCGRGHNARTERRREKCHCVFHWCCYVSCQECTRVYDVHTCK
compound,measurement,setting,value
C=CC(=O)N1C/C(=C/c2ccccc2)C(=O)/C(=C\c2ccccc2)C1,IC50,[1],3.66 µM (active)
O=C(NCCc1ccccc1)c1coc(=O)c(Br)c1,IC50,Interleukin-8 [2],987 nM (active)
same,EC50,HEK293 [3],> 59.6 µM (inactive)
same,EC50,Kallikrein-7,16.5 µM (inactive)
same,EC50,HEK293 [4],> 59.6 µM (inactive)
same,IC50,Interleukin-8 [5],684 nM (active)
CC(C)(C)C(=O)COC(=O)CNC(=O)c1ccc(Oc2ccccc2)cc1,IC50,[6],> 64.6 µM (inactive)
same,IC50,Melanocortin receptor 4,> 64.6 µM (inactive)
C[C@H]1CN([C@@H](C)CO)C(=O)c2cccc(NC(=O)c3nc4ccccc4s3)c2O[C@H]1CN(C)S(=O)(=O)c1ccccc1,AC50,[7],39 µM (inactive)
same,AC50,[8],2.55 µM (active)
O=C(Nc1ccc2nc(-c3ccco3)c(-c3ccco3)nc2c1)N1CCN(c2ccccn2)CC1,IC50,[9],8.13 µM (active)
same,IC50,[10],24.6 µM (inactive)
same,IC50,[11],> 66 µM (inactive)
same,IC50,[12],6.94 µM (active)
same,IC50,[13],8.98 µM (active)
same,IC50,[14],19.7 µM (active)
same,IC50,[15],51.7 µM (inactive)
same,IC50,[16],> 66 µM (inactive)
CSc1nsc(/C=C/Nc2ccc(C(=O)O)cc2)c1C#N,IC50,[17],45 µM (active)
same,IC50,Prothrombin,27.6 µM (active)
same,IC50,[18],24.8 µM (active)
CCOc1ccc(-c2nc(CSCC(=O)N3CCN(c4cccc(OC)c4)CC3)c(C)o2)cc1,EC50,[19],48 µM (active)
same,EC50,HEK293 [20],5.87 µM (active)
same,IC50,Nonstructural protein 1,> 100 µM (active)
same,IC50,HEK293 [21],5.09 µM (active)
same,IC50,HEK293 [22],4.42 µM (active)
same,IC50,HEK293 [23],8.52 µM (active)
same,IC50,[24],4 µM (active)
C=CCNC(=S)/N=c1/ccccn1Cc1ccccc1,IC50,Protein Wnt-3a,40.8 µM (inactive)
